Laboratory results from ChEMBL document CHEMBL1201862, “PubChem BioAssay data set” (2004).
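96-well plates; 48 h exposure; 5 concentrations. Endpoints by linear interpolation between flanking doses. Not reached: highest tested concentration assigned. GI50 marks 50% less growth.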 The source made the active and inactive calls. Rule as the data show it: active = GI50 up to about 1.1 µM and inactive = higher.

Key:
Assay in all cases: growth of human tumour cells (NCI), 48 h
[1] = tested on: 786-0
[2] = tested on: A498
[3] = tested on: A549
[4] = tested on: ACHN
[5] = tested on: BT-549
[6] = tested on: CCRF-CEM
[7] = tested on: COLO 205
[8] = tested on: DU-145
[9] = tested on: EKVX
[10] = tested on: HCC 2998
[11] = tested on: HCT-116
[12] = tested on: HCT-15
[13] = tested on: HOP-62
[14] = tested on: HOP-92
[15] = tested on: HT-29
[16] = tested on: Hs-578T
[17] = tested on: IGROV-1
[18] = tested on: K562
[19] = tested on: KM12
[20] = tested on: LOX IMVI
[21] = tested on: M14
[22] = tested on: MDA-MB-231
[23] = tested on: MDA-MB-435
[24] = tested on: MDA-N
[25] = tested on: MOLT-4
[26] = tested on: Malme-3M
[27] = tested on: NCI-H226
[28] = tested on: NCI-H23
[29] = tested on: NCI-H460
[30] = tested on: NCI-H522
[31] = tested on: NCI/ADR-RES
[32] = tested on: OVCAR-3
[33] = tested on: OVCAR-4
[34] = tested on: OVCAR-5
[35] = tested on: OVCAR-8
[36] = tested on: PC-3
[37] = tested on: RPMI-8226
[38] = tested on: RXF 393
[39] = tested on: SF-268
[40] = tested on: SF-295
[41] = tested on: SF-539
[42] = tested on: SK-MEL-28
[43] = tested on: SK-MEL-2
[44] = tested on: SK-MEL-5
[45] = tested on: SK-OV-3
[46] = tested on: SN12C
[47] = tested on: SNB-19
[48] = tested on: SNB-75
[49] = tested on: SR
[50] = tested on: SW-620
[51] = tested on: T47D
[52] = tested on: TK-10
[53] = tested on: U-251
[54] = tested on: UACC-257
[55] = tested on: UACC-62
[56] = tested on: UO-31
[57] = tested on: CAKI-1
[58] = tested on: HL-60
[59] = tested on: MCF7

SMILES: CC(=O)ON(C(C)=O)c1ccc(-c2nc3ccccc3s2)cc1
- GI50 [1]: 30.2 µM (inactive)
- GI50 [2]: 0.315 µM (active)
- GI50 [3]: 26.3 µM (inactive)
- GI50 [4]: 19.4 µM (inactive)
- GI50 [5]: 37.6 µM (inactive)
- GI50 [6]: 7.35 µM (inactive)
- GI50 [7]: 18.7 µM (inactive)
- GI50 [8]: 26.2 µM (inactive)
- GI50 [9]: 13.1 µM (inactive)
- GI50 [10]: 17.4 µM (inactive)
- GI50 [11]: 24.5 µM (inactive)
- GI50 [12]: 24.4 µM
- GI50 [13]: 22 µM (inactive)
- GI50 [14]: 34.7 µM (inactive)
- GI50 [15]: 24 µM (inactive)
- GI50 [16]: 21.2 µM (inactive)
- GI50 [17]: 0.791 µM (active)
- GI50 [18]: 41 µM (inactive)
- GI50 [19]: 15.1 µM (inactive)
- GI50 [20]: 25.5 µM (inactive)
- GI50 [21]: 26.4 µM (inactive)
- GI50 [22]: 25 µM (inactive)
- GI50 [23]: 26.9 µM (inactive)
- GI50 [24]: 27.2 µM (inactive)
- GI50 [25]: 13.3 µM (inactive)
- GI50 [26]: 14.7 µM (inactive)
- GI50 [27]: 0.276 µM (active)
- GI50 [28]: 26 µM (inactive)
- GI50 [29]: 28.4 µM (inactive)
- GI50 [30]: 15.1 µM (inactive)
- GI50 [31]: 16.3 µM (inactive)
- GI50 [32]: 22.1 µM (inactive)
- GI50 [33]: 38.7 µM (inactive)
- GI50 [34]: 34.2 µM (inactive)
- GI50 [35]: 21.2 µM (inactive)
- GI50 [36]: 50.6 µM (inactive)
- GI50 [37]: 18.3 µM (inactive)
- GI50 [38]: 35.3 µM (inactive)
- GI50 [39]: 24.7 µM (inactive)
- GI50 [40]: 30.1 µM (inactive)
- GI50 [41]: 15.3 µM (inactive)
- GI50 [42]: 31.8 µM (inactive)
- GI50 [43]: 24.8 µM (inactive)
- GI50 [44]: 24.5 µM (inactive)
- GI50 [45]: 31.3 µM (inactive)
- GI50 [46]: 40.7 µM (inactive)
- GI50 [47]: 34.7 µM (inactive)
- GI50 [48]: 24.5 µM (inactive)
- GI50 [49]: 25.6 µM (inactive)
- GI50 [50]: 26.2 µM (inactive)
- GI50 [51]: 17.4 µM (inactive)
- GI50 [52]: 34.4 µM (inactive)
- GI50 [53]: 24.2 µM (inactive)
- GI50 [54]: 37 µM (inactive)
- GI50 [55]: 20.9 µM (inactive)
- GI50 [56]: 14.6 µM (inactive)

SMILES: CN(C)S(=O)(=O)Nc1nnc(S(N)(=O)=O)s1
- GI50 [1]: > 100 µM (inactive)
- GI50 [2]: > 100 µM (inactive)
- GI50 [3]: > 100 µM (inactive)
- GI50 [4]: > 100 µM (inactive)
- GI50 [5]: > 100 µM (inactive)
- GI50 [57]: > 100 µM (inactive)
- GI50 [7]: > 100 µM (inactive)
- GI50 [8]: > 100 µM (inactive)
- GI50 [9]: > 100 µM (inactive)
- GI50 [10]: > 100 µM (inactive)
- GI50 [11]: > 100 µM (inactive)
- GI50 [12]: > 100 µM
- GI50 [58]: > 100 µM (inactive)
- GI50 [13]: > 100 µM (inactive)
- GI50 [14]: > 100 µM (inactive)
- GI50 [15]: > 100 µM (inactive)
- GI50 [16]: > 100 µM (inactive)
- GI50 [17]: > 100 µM (inactive)
- GI50 [18]: > 100 µM (inactive)
- GI50 [19]: > 100 µM (inactive)
- GI50 [21]: > 100 µM (inactive)
- GI50 [59]: > 100 µM (inactive)
- GI50 [22]: > 100 µM (inactive)
- GI50 [23]: > 100 µM (inactive)
- GI50 [25]: > 100 µM (inactive)
- GI50 [26]: > 100 µM (inactive)
- GI50 [27]: > 100 µM (inactive)
- GI50 [28]: > 100 µM (inactive)
- GI50 [29]: > 100 µM (inactive)
- GI50 [30]: > 100 µM (inactive)
- GI50 [31]: > 100 µM (inactive)
- GI50 [32]: > 100 µM (inactive)
- GI50 [33]: > 100 µM (inactive)
- GI50 [34]: > 100 µM (inactive)
- GI50 [36]: > 100 µM (inactive)
- GI50 [37]: > 100 µM (inactive)
- GI50 [38]: > 100 µM (inactive)
- GI50 [39]: > 100 µM (inactive)
- GI50 [40]: > 100 µM (inactive)
- GI50 [41]: > 100 µM (inactive)
- GI50 [42]: > 100 µM (inactive)
- GI50 [43]: > 100 µM (inactive)
- GI50 [44]: > 100 µM (inactive)
- GI50 [45]: > 100 µM (inactive)
- GI50 [47]: > 100 µM (inactive)
- GI50 [48]: > 100 µM (inactive)
- GI50 [49]: > 100 µM (inactive)
- GI50 [50]: > 100 µM (inactive)
- GI50 [51]: 64.3 µM (inactive)
- GI50 [52]: > 100 µM (inactive)
- GI50 [53]: > 100 µM (inactive)
- GI50 [55]: > 100 µM (inactive)
- GI50 [56]: > 100 µM (inactive)
